Data on 5 compounds can be found in patent publication US8507472B2 (priority 2010, dated 2013).

Like-named read-outs stand apart in the source and are kept apart here.

In series [1] the test system is Alternaria solani. The series is described as follows: Alternaria test (tomato)/protective. The series is classed as in vivo. In short, it runs like this: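 Young tomato plants were sprayed with compound (DMF/emulsifier formulation diluted in water) and inoculated with A. solani spores 1 day later. Plants were kept 24 h at 100% RH and 22 °C, then at 96% RH and 20 °C. Efficacy was scored 7 days post-inoculation, where 0% equals untreated control and 100% means no infection.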

Series [2] relates to Botrytis cinerea. As to the kind of experiment: Botrytis test (bean)/protective. The series is classed as in vivo. The following applies: 100 ppm active compound, protective, evaluation 2 days after inoculation. In a few lines: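 Young bean plants sprayed at the stated rate with compound in acetone/dimethylacetamide plus alkylaryl polyglycol ether emulsifier, diluted in water. Once dry, each leaf got 2 agar pieces colonized by Botrytis cinerea; kept dark at about 20° C., 100% humidity. Infected area scored after 2 days; 0% = control, 100% = no infection.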

The subject of series [3] is Fusarium graminearum. The series is classed as in vivo.
The test system of series [4] is Fusarium nivale (var. majus). As to the kind of experiment: Fusarium nivale (var. majus) test (wheat)/protective. Format: in vivo. The following applies: 1000 ppm active compound, protective, evaluation 5 days after inoculation. In a few lines: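 Protective spray of young wheat plants at the stated rate (compound in dimethylacetamide with emulsifier, diluted in water), then inoculation with Fusarium nivale spores once dry. Plants kept at 10 °C and 100% humidity; scored 5 days after inoculation as % efficacy, where 0% equals untreated control and 100% means no infection.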

Series [5] concerns Leptosphaeria nodorum. The series is described as follows: Leptosphaeria nodorum test (wheat)/protective. Format: in vivo. In short, it runs like this:
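Young wheat plants were sprayed protectively, then inoculated 1 day later with L. nodorum spores and held 48 h at 100% humidity and 22° C. They were then kept in a greenhouse at 90% humidity and 22° C. Efficacy was scored 7-9 days post-inoculation, where 0% equals control and 100% means no infection.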

Series [6] concerns Phytophthora infestans. Format: in vivo.
Series [7] relates to Puccinia triticina. As to the kind of experiment: Puccinia triticina test (wheat)/protective. Format: in vivo. In short, it runs like this: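 Protective test: young wheat plants sprayed with compound (dimethylacetamide/alkylaryl polyglycol ether formulation, water-diluted) at stated rate, then inoculated with Puccinia triticina spores once dry; 48 h at 20 °C, 100% RH, then greenhouse ~20 °C, ~80% RH. Efficacy scored 8 days post-inoculation, 0% = control, 100% = no infection.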

The test system of series [8] is Pyrenophora teres. The series is described as follows: Pyrenophora teres test (barley)/protective. The series is classed as in vivo. In a few lines: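 Protective test: young barley plants sprayed at the stated rate with compound in DMF/alkylaryl polyglycol ether diluted with water, inoculated with P. teres spores 1 day later, kept 48 h at 100% rel. humidity and 22° C., then greenhouse at 80% and 20° C. Efficacy scored 7-9 days post-inoculation (0% = control, 100% = no infection).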

The test system of series [9] is Septoria tritici. As to the kind of experiment: Septoria tritici test (wheat)/protective. The following applies: in vivo. The series is classed as in vivo. In short, it runs like this: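 Young wheat plants were sprayed protectively with compound (dimethylacetamide/emulsifier formulation diluted in water), then inoculated with Septoria tritici spores after drying. Incubation was 48 hours at 20° C and 100% humidity, then 60 hours at 15° C and 100% humidity, then greenhouse at about 15° C, 80% humidity; efficacy was scored 21 days post-inoculation (0% = control, 100% = no infection).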

In series [10] the test system is Sphaerotheca fuliginea. The series is described as follows: Sphaerotheca test (cucumber)/protective. The series is classed as in vivo. In short, it runs like this:
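Protective test: young cucumber plants sprayed with compound (DMF/alkylaryl polyglycol ether concentrate diluted in water) at the stated rate, inoculated with S. fuliginea spores 1 day later, then kept in greenhouse at 23 °C, 70% RH. Efficacy scored 7 days post-inoculation; 0% equals untreated control, 100% means no infection.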

For series [11], the system named is Uromyces appendiculatus. The series is described as follows: Uromyces test (bean)/protective. The series is classed as in vivo. In short, it runs like this: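 Young bean plants sprayed with compound formulated in acetone/dimethylacetamide with emulsifier, inoculated with Uromyces appendiculatus spores after drying, held 1 day at ~20 °C and 100% humidity, then greenhouse ~21 °C, ~90% humidity. Efficacy scored 10 days post-inoculation, 0% = untreated control, 100% = no infection.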

Series [12] deals with Venturia inaequalis. The series is described as follows: Venturia test (apple)/protective. The series is classed as in vivo. The following applies: 100 ppm active compound, protective, evaluation 10 days after inoculation. In a few lines: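 Young apple plants sprayed protectively with compound (in acetone/dimethylacetamide with alkylaryl polyglycol ether, diluted in water) at the stated rate, then inoculated with V. inaequalis conidia once dry. Held 1 day at ~20° C, 100% humidity, then greenhouse ~21° C, ~90% humidity; efficacy scored 10 days post-inoculation (0% = control, 100% = no infection).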

The subject of series [13] is Pyricularia oryzae. The following applies: in vivo.
For series [14], the system named is Rhizoctonia solani. The series is described as follows: Rhizoctonia test (rice)/protective. Format: in vivo. The following applies: 250 ppm active compound, protective, evaluation 4 days after inoculation. How it is done: (§1) Solvent: 28.5 parts by weight of acetone
(§2) Emulsifier: 1.5 parts by weight of alkylaryl polyglycol ether
(§3) To produce a suitable preparation of active compound, 1 part by weight of active compound is mixed with the stated amount of solvent, and the concentrate is diluted with water and the stated amount of emulsifier to the desired concentration.
To test for protective activity, young rice plants are sprayed with the active compound preparation at the stated application rate. 1 day after the treatment, the plants are inoculated with hyphae of Rhizoctonia solani. The plants are then placed in a greenhouse at 100% relative atmospheric humidity and 25° C.
Evaluation is carried out 4 days after the inoculation. 0% means an efficacy which corresponds to that of the control, whereas an efficacy of 100% means that no infection is observed.

Series [15] concerns Cochliobolus miyabeanus. The series is described as follows: Cochliobolus test (rice)/protective. The series is classed as in vivo. The following applies: 250 ppm active compound, protective, evaluation 4 days after inoculation.
Series [16] deals with Gibberella zeae. The following applies: in vivo.
In series [17] the test system is DON/AcDON production. The series is described as follows: microbe, parasite or virus in culture. The series is classed as cell-based, Fusarium graminearum. The following applies: 7 days at 28° C.
The subject of series [18] is Fusarium graminearum. The series is described as follows: microbe, parasite or virus in culture. Format: cell-based.
Series [19] concerns Phakopsora pachyrhizi. As to the kind of experiment: Phakopsora test (Sojabohnen)/protective. The series is classed as in vivo. The following applies: 250 ppm active compound, protective, evaluation 1 day after inoculation. How it is done: as §1, §2, §3
[…] 1 day after the treatment, the plants are inoculated with an aqueous spore suspension of Phakopsora pachyrhizi. The plants are then placed in a greenhouse at 80% relative atmospheric humidity and 20° C.
Evaluation is carried out 1 day after the inoculation. 0% means an efficacy which corresponds to that of the control, whereas an efficacy of 100% means that no infection is observed.

Series [20] is described as follows: log P determination by HPLC retention times (alkan-2-one calibration).
Setting [21] is: 500 ppm active compound, tomato, protective, evaluation 7 days after inoculation.

As to `CC(C)C(=O)Nc1cc(-c2c(-c3ccccc3)nn3c2CCCC3)ccn1` [Example 29], the efficacy in % was found to be 100% in series [1] (in vivo); 100% in series [2]; 94% in [3] (in vivo); 86% in [4]; 90% in series [5] (in vivo); 90% in [6] (in vivo). Besides, the efficacy in % is reported as 94% in series [7] (in vivo); 100% in series [8] (in vivo); 71% in [9]; 83% in series [10] (in vivo); 94% in series [11] (in vivo); 95% in series [12]. Moreover, the efficacy in % in [13] is recorded as 95%; in series [14], 100%; in [15], 95%; in series [16] it was 80%. Besides, the “% inhibition of DON/AcDON at 50 μM” value in series [17] is recorded as 99%. Also, the “% inhibition of the fungal growth of Fusarium graminearum at 50 μM” value (from here on “% inhibition of the fungal growth … at 50 μM”) in series [18] was 100%.
`CC(C)CC(=O)Nc1cc(-c2c(-c3ccccc3)nn3c2CCCC3)ccn1` [Example 31]: the efficacy in % in series [1] (in vivo) came to 94%; in series [2] it was 90%; in series [3] (in vivo), 100%; in [4], 100%; in [5] (in vivo), 90%; in [6] (in vivo), 80%. In addition, the efficacy in % came to 94% in series [7] (in vivo); 100% in series [8] (in vivo); 100% in series [9]; 95% in [10] (in vivo); 94% in series [11] (in vivo); 100% in series [12]. The efficacy in % in [13] was 98%; in [14] it was 100%; in series [15], 95%; in [16] it was 80%. The “% inhibition of DON/AcDON at 50 μM” value in series [17] is on record as 99%. Further, the “% inhibition of the fungal growth … at 50 μM” value in series [18] is given as 97%.
Consider `O=C(Cc1ccccc1)Nc1cc(-c2c(-c3ccc(F)cc3)nn3c2CCCC3)ccn1` [Example 34], for which the efficacy in % in [1] (in vivo) is reported as 100%; in [2], 99%; in series [3] (in vivo), 100%; in [4], 100%; in series [5] (in vivo), 95%; in series [6] (in vivo) it was 95%. Also, the efficacy in % in series [7] (in vivo) was found to be 94%; in series [8] (in vivo), 94%; in [9] it was 93%; in series [10] (in vivo) it was 100%; in [11] (in vivo) it was 95%; in [12] it was 95%. The efficacy in % in series [13] is listed as 95%; in series [14], 85%; in series [15], 90%; in series [16] it was 80%. For the same compound, in [17], the “% inhibition of DON/AcDON at 50 μM” value is given as 99%. Besides, the “% inhibition of the fungal growth … at 50 μM” value in series [18] came out at 98%.
For `CCC(=O)Nc1cc(-c2c(-c3ccc(F)cc3)nn3c2CCCC3)ccn1` [Example 5, N-{4-[2-(4-Fluorophenyl)-4,5,6,7-tetrahydropyrazolo[1,5-a]pyridin-3-yl]pyridin-2-yl}propanamide], the efficacy in % came to 100% in series [1] (setting [21]); 100% in series [2]; 100% in [3] (1000 ppm active compound, barley, protective, evaluation 5 days after inoculation); 100% in series [4]; 94% in series [5] (500 ppm active compound, wheat, protective, evaluation 7-9 days after inoculation); 95% in [6] (setting [21]). For the same compound, the efficacy in % in series [7] (1000 ppm active compound, wheat, protective, evaluation 8 days after inoculation) amounted to 100%; in series [8] (500 ppm active compound, barley, protective, evaluation 7-9 days after inoculation), 100%; in series [10] (500 ppm active compound, cucumber, protective, evaluation 7 days after inoculation), 95%; in series [11] (100 ppm active compound, bean, protective, evaluation 10 days after inoculation) it was 98%; in series [12], 98%; in series [19], 80%. Besides, the inhibition at 50 µM in series [17] (Fusarium graminearum, 168 h) was determined as 99%; in series [18] (Fusarium graminearum, 72 h, read-out: % inhibition of the fungal growth of Fusarium graminearum at 50 μM), 100%. Moreover, the chromatographic logP in series [20] (log P(HCOOH), HCOOH, preparation examples in the text) amounted to 1.97; in [20] (log P, values marked [a] in Table 1), 1.97; in series [20] (log P, values marked [b] in Table 1), 2.58.
As to `CC(C)C(=O)Nc1cc(-c2c(-c3ccc(F)cc3)nn3c2CCCC3)ccn1` [Example 28], the efficacy in % amounted to 100% in series [1] (in vivo); 95% in [2]; 100% in series [3] (in vivo); 100% in series [4]; 90% in series [5] (in vivo); 95% in series [6] (in vivo). The efficacy in % in series [7] (in vivo) was 100%; in [8] (in vivo) it was 100%; in series [9], 100%; in [10] (in vivo), 100%; in series [11] (in vivo), 95%; in series [12] it was 100%. In addition, the efficacy in % is reported as 90% in series [13], 100% in series [14], 95% in series [15] and 85% in series [16]. Also, the “% inhibition of DON/AcDON at 50 μM” value in series [17] amounted to 99%. Besides, in series [18], the “% inhibition of the fungal growth … at 50 μM” value came out at 100%.

In general, inhibition refers to the relative decrease from the control value, in per cent. The term chromatographic logP denotes a lipophilicity value derived from retention on a column.
